Tests used:
[1] = test system: T-cell counts; conditions: AIDS patients; fenfluramine with phentermine; cited from earlier work
[2] = test system: human percoll-fractionated peripheral blood lymphocytes mediated NK activity; conditions: in vitro, cited from earlier work
[3] = test system: fungal infections; conditions: AIDS patients; cited from earlier work
[4] = test system: K562 human tumor cells; assay: Natural killer cell cytotoxicity of human PBMC against K562 tumor cells in vitro; assay type: cell-based
Description: Prior to conducting the above experiment, we examined the dose dependent effects of d-FEN on the ability of human PBMC obtained from five healthy volunteers (person Caucasians) to kill human K562 tumor cells in vitro. The potential cytotoxic enhancing effects of d-FEN and d-norFEN were compared using PBMC from two of the five human donors.
For assessment of immunological parameters of human PBMC, venous blood as aseptically drawn into sterile 10 ml tubes containing 20 U/ml preservative free heparin, diluted with an equal volume of Hank's Balanced Salt Solution (HBSS), layered over Lymphocyte Separation Medium (LSM, Bionetics, Kensington, Md.) and centrifuged at 1,000 ×g for 30 min. After centrifugation, the mononuclear cell layer was recovered from the interface and washed twice in HBSS and enumerated.
The K562 cell line originated from a chronic myelogenous leukemia patient and was obtained from Dr. T. Ellis (Director, Cellular Immunology Laboratory, LUMC). The K562 cells used for assessment of cytotoxic activity were maintained in long term cultures using Corning 25 cm^2 tissue culture flasks (Corning Glass Works, Corning, N.Y.) containing RPMI 1640 (Gibco Laboratories, Grand Island, N.Y.) supplemented with low LPS 10% fetal bovine serum (FBS; Gibco), 100 units/ml penicillin, 100 μg/ml streptomycin (Whittaker M. A. Bioproducts, Walkersville, Md.), 0.1 mM non-essential amino acids, and 2 mM L-glutamine (Gibco). This medium was used throughout, except where noted, and is referred to as "culture medium". The K562 cells were grown in suspension and were passaged three times per week by transfer of 10^6 K562 cells into a flask containing 10 ml of fresh culture medium. The K562 cells injected into the SCID mice were supplemented with fresh medium at a 1:3 dilution the day before administration. They were washed once in medium, pelleted by centrifugation at 500 ×g for 10 min., then resuspended at a concentration of 5×10^7. Subsequently, 0.2 ml (1×10^7 cells) of the cell suspension was injected (i.p.) into each SCID mouse. The K562 cells were administered to the animals four days after the injection of PBMC.
The K562 tumor cell lines maintained in vitro were washed once in culture medium, pelleted by centrifugation at 500×g for 10 min and resuspended in approximately 0.1 ml of culture medium. Subsequently, 100 μCi of [^51 Cr] (New England Nuclear, Boston, Mass.) was added to 1×10^5 cells in a final volume of 0.2 ml. The cells were incubated at 37° C. with 5% CO2 for 1 h with agitation every 10 min, then washed 3 times in HBSS, resuspended to 5×10^4 cells/ml in culture medium and 0.1 ml (5×10^3) aliquoted to each well of a 96 well round bottom assay plate (Corning Glass Works, Corning, N.Y.). Radiolabelled K562 was cultured for 4 h with lymphocytes at effector to target ratios ranging from 50:1 to 6:1. Following 4 h of culture the media was removed using a Skatron harvesting press (Skatron Inc., Sterling, Va.) and associated radioactivity determined. Maximum release was obtained by adding 0.05% Nonidet P-40 (Sigma Chemical Co., St. Louis, Mo.).
The results have been expressed as % cytotoxicity and calculated by the formula: % cytotoxicity=[(experimental DPM-minimum DPM)/(maximum DPM-minimum DPM)]×100.
All experimental means were calculated from triplicate values. Lytic units (LU) were calculated using a computer program written by David Coggins, FCRC, Frederick, Md.

[5] = Plasma d-FEN and d-norFEN levels and half-life in mice; assay type: in vivo; conditions: mouse; d-FEN p.o. in drinking water; sacrificed 11:00-13:00 h
Description: Mice like rats are prandial drinkers during the dark period of the light-dark cycle. The animals were sacrificed between 11:00 and 13:00 h, 4-6 h after the end of the dark period.

[6] = mouse; cited from earlier work

CCNC(C)Cc1cccc(C(F)(F)F)c1 (racemic) [fenfluramine]
T-cell counts in words [1]: significant improvement of their T-cell counts

NCCc1c[nH]c2ccc(O)cc12 [5-HT]
effect on NK activity in words ([2]; 5-HT dose dependent): stimulatory effects | duration of NK stimulation [2]: 16 h

C[C@@H]1[C@H](O)[C@@H](C)/C=C/C=C/C=C/C=C/C=C/C=C/C=C/[C@H](O[C@@H]2O[C@H](C)[C@@H](O)[C@H](N)[C@@H]2O)C[C@@H]2O[C@](O)(C[C@@H](O)C[C@@H](O)[C@H](O)CC[C@@H](O)C[C@@H](O)CC(=O)O[C@H]1C)C[C@H](O)[C@H]2C(=O)O [amphotericin B]
effect on fungal infections in words [3]: can suppress fungal infections, but for the first time appear to have no curative effect in AIDS patients

C[C@H](N)Cc1cccc(C(F)(F)F)c1 [d-norFEN]
percent increase in cytotoxicity ([4]; 0.25 ng/ml, DONOR #1): 29% | percent increase in cytotoxicity ([4]; 0.25 ng/ml, DONOR #2): 19% | percent increase in cytotoxicity ([4]; 0.50 ng/ml, DONOR #1): 24% | percent increase in cytotoxicity ([4]; 0.50 ng/ml, DONOR #2): 28% | percent increase in cytotoxicity ([4]; 1.00 ng/ml, DONOR #1): 11% | percent increase in cytotoxicity ([4]; 1.00 ng/ml, DONOR #2): 13% | d-FEN vs d-norFEN effect on cytotoxicity in words ([4]; PBMC of two donors): virtually identical effects | effect on capacity of human NK cells to kill K562, in words ([4]; conclusion): augments the capacity of human NK cells to kill the human tumor cell line, K562 | plasma d-FEN and d-norFEN levels at sacrifice [5]: Neither d-FEN nor d-norFEN was detected | t1/2 [6]: 6 h

From patent US5955508A, “Method for the enhancement of lymphocyte activity against opportunistic microbial pathogens” (priority 1996, dated 1999)
